Laboratory results taken from the kinase profiling compilation of Christmann-Franck et al. (2016).

What was measured:
Experiment in all cases: KINOMEscan competition binding
Details in all cases: compound 1.0 µM
NEK1 (human) = NEK1 (human) (UniProt Q96PY6)
RPS6KA2 KD2 (human) = RPS6KA2 KD2 (human) (UniProt Q15349)
CDK4 CCND3 (human) = CDK4 CCND3 (human) (UniProt P11802+P30281)
TNK1 (human) = TNK1 (human) (UniProt Q13470)
KDR (human) = KDR (human) (UniProt P35968)
CAMK2A (human) = CAMK2A (human) (UniProt Q9UQM7)
CDK14 (human) = CDK14 (human) (UniProt O94921)
MERTK (human) = MERTK (human) (UniProt Q12866)
[1] = test system: EGFR (human), P00533 [752-759 del]
[2] = test system: ABL1 (human), P00519 [E255K]
CDK15 (human) = CDK15 (human) (UniProt Q96Q40)
MAPK1 (human) = MAPK1 (human) (UniProt P28482)
CDK9 (human) = CDK9 (human) (UniProt P50750)
CHUK (human) = CHUK (human) (UniProt O15111)
NUAK2 (human) = NUAK2 (human) (UniProt Q9H093)
[3] = test system: PIK3CA (human), P42336 [H1047Y]
ULK1 (human) = ULK1 (human) (UniProt O75385)
KIT (human) = KIT (human) (UniProt P10721)
MAP4K1 (human) = MAP4K1 (human) (UniProt Q92918)
DAPK3 (human) = DAPK3 (human) (UniProt O43293)
ERN1 (human) = ERN1 (human) (UniProt O75460)
CAMKK2 (human) = CAMKK2 (human) (UniProt Q96RR4)
MAP3K1 (human) = MAP3K1 (human) (UniProt Q13233)
PRKG2 (human) = PRKG2 (human) (UniProt Q13237)
RIPK4 (human) = RIPK4 (human) (UniProt P57078)
STK16 (human) = STK16 (human) (UniProt O75716)
SRPK1 (human) = SRPK1 (human) (UniProt Q96SB4)
SRC (human) = SRC (human) (UniProt P12931)
PRKD1 (human) = PRKD1 (human) (UniProt Q15139)
[4] = test system: EGFR (human), P00533 [L861Q]
MTOR (human) = MTOR (human) (UniProt P42345)
MARK2 (human) = MARK2 (human) (UniProt Q7KZI7)
NEK11 (human) = NEK11 (human) (UniProt Q8NG66)
NEK9 (human) = NEK9 (human) (UniProt Q8TD19)
[5] = test system: KIT (human), P10721 [A829P]
[6] = test system: FLT3 (human), P36888 [R834Q]
MAP3K2 (human) = MAP3K2 (human) (UniProt Q9Y2U5)
PHKG2 (human) = PHKG2 (human) (UniProt P15735)
[7] = target: JAK1 JH1 catalytic (human) (UniProt P23458)
CDK4 CCND1 (human) = CDK4 CCND1 (human) (UniProt P11802+P24385)
[8] = target: JAK2 JH1 catalytic (human) (UniProt O60674)
ACVR1B (human) = ACVR1B (human) (UniProt P36896)
DYRK1B (human) = DYRK1B (human) (UniProt Q9Y463)

NEK11 (human), sequence (Q8NG66 whole entry, looked up): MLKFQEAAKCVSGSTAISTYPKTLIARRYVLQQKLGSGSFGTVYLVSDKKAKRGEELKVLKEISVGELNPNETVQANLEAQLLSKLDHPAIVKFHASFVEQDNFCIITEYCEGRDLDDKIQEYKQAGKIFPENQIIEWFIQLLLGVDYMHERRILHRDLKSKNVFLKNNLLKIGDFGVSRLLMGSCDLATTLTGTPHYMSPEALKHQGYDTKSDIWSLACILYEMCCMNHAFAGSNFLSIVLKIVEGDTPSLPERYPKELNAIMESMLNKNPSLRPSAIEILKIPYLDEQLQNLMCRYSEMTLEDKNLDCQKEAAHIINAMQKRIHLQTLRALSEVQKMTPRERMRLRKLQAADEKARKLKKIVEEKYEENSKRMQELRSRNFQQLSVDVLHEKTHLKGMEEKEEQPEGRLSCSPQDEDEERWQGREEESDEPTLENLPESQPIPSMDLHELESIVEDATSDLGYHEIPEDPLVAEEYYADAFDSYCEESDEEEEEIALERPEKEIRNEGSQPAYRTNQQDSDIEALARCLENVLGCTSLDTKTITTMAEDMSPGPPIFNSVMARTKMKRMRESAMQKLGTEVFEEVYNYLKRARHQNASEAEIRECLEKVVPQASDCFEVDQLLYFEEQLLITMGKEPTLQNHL
PRKD1 (human), sequence (Q15139 whole entry, looked up): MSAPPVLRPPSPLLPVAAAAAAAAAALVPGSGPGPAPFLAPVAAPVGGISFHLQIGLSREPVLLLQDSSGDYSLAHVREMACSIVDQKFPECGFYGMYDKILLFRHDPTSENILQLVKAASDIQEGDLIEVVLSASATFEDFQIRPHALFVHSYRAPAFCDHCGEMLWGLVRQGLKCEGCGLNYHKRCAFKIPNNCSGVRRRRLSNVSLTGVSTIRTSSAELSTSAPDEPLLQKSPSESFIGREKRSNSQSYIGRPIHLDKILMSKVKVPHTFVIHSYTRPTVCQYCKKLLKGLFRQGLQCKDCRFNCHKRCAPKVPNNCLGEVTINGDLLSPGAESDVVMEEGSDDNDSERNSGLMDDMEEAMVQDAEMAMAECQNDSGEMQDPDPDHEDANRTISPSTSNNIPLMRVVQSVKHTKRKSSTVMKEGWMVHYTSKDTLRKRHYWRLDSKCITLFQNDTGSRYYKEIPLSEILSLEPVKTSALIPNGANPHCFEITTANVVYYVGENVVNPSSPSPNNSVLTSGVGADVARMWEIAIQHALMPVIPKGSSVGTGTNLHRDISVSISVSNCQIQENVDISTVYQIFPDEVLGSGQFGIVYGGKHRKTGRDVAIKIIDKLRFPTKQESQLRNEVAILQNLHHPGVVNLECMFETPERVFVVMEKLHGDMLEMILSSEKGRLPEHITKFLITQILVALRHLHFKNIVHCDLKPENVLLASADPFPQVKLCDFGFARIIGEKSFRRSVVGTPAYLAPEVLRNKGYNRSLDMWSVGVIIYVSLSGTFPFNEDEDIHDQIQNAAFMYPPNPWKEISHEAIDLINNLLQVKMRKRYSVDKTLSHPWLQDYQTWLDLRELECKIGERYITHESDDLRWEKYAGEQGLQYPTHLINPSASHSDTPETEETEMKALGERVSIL
MAP4K1 (human), sequence (Q92918 whole entry, looked up): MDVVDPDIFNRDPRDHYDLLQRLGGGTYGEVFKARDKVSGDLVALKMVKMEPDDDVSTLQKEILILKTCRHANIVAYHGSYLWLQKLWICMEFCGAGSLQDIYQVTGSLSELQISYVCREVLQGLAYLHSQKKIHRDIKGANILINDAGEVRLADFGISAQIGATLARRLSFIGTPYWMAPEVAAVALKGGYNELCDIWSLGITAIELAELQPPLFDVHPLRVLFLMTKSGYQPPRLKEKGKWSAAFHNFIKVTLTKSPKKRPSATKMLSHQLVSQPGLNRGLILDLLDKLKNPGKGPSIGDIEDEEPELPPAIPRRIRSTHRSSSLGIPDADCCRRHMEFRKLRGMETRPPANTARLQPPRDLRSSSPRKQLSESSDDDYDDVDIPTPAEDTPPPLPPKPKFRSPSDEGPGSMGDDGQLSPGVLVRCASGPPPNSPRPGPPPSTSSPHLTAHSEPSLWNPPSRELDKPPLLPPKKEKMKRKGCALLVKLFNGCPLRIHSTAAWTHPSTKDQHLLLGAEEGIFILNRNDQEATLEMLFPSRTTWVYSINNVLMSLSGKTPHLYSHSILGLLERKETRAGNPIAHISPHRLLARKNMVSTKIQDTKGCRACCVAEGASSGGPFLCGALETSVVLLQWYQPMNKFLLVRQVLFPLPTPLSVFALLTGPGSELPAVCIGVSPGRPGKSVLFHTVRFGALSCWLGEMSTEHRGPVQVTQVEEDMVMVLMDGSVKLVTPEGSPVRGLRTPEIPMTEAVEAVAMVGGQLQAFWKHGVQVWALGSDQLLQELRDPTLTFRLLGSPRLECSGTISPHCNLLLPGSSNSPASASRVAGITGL
MARK2 (human), sequence (Q7KZI7 whole entry, looked up): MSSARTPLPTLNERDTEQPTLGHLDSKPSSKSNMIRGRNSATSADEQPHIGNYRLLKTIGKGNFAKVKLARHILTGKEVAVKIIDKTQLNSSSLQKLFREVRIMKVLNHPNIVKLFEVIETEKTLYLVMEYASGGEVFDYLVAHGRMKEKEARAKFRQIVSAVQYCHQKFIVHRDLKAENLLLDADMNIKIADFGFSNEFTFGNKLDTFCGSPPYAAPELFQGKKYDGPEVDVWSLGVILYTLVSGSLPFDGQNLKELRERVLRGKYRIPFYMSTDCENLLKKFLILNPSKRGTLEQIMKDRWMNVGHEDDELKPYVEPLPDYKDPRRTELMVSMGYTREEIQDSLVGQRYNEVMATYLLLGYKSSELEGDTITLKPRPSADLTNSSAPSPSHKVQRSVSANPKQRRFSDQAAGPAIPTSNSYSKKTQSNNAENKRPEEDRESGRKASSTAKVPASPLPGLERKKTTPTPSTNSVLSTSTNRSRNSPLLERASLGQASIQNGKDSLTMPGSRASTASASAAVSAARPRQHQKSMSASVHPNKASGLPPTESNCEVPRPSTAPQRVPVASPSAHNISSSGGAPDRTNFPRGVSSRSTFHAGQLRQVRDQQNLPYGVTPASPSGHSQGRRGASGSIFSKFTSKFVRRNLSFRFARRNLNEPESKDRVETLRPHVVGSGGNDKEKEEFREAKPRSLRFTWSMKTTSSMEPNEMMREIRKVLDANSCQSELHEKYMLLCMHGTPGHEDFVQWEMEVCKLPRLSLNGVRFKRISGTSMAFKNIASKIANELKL
JAK1 JH1 catalytic (human), sequence (P23458 whole entry, looked up): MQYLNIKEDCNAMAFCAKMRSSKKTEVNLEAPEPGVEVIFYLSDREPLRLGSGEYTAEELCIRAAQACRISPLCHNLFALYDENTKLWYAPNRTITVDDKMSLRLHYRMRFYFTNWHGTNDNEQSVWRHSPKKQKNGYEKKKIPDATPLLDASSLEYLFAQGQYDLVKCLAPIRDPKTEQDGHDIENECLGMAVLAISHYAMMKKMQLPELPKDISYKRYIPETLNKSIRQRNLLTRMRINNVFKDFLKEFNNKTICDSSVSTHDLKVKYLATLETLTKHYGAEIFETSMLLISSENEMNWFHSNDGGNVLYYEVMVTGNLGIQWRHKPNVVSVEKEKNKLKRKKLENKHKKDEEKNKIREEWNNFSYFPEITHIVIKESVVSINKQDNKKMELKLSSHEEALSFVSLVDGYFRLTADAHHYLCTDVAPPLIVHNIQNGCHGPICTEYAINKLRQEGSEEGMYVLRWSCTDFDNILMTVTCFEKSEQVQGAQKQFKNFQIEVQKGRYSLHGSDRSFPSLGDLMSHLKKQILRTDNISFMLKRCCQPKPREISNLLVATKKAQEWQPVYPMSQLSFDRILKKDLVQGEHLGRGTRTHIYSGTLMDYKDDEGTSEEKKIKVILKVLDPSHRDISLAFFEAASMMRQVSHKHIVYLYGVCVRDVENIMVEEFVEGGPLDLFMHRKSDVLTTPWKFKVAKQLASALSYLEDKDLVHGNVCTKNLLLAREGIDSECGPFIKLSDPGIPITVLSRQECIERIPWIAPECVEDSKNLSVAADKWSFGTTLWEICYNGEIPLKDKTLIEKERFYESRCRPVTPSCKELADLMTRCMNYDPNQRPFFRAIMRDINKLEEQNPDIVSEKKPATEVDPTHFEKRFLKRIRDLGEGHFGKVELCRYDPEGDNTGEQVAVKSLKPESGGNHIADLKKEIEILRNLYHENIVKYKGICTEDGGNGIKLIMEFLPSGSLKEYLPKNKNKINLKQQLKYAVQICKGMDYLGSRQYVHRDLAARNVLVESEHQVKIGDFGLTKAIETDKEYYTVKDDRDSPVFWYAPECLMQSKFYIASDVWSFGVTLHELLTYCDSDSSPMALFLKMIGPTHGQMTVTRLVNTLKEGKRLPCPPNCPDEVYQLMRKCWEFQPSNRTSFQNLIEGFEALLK
PHKG2 (human), sequence (P15735 whole entry, looked up): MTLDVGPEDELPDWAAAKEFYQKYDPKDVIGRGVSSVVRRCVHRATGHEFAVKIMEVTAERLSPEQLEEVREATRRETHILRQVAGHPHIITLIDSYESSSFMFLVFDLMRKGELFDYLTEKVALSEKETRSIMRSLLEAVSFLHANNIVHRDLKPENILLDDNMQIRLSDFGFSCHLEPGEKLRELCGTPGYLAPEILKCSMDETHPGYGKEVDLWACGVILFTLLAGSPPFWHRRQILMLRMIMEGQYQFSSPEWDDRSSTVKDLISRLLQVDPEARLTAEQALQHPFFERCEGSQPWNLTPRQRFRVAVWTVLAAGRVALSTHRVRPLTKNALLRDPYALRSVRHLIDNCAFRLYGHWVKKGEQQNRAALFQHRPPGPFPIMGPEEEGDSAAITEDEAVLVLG
STK16 (human), sequence (O75716 whole entry, looked up): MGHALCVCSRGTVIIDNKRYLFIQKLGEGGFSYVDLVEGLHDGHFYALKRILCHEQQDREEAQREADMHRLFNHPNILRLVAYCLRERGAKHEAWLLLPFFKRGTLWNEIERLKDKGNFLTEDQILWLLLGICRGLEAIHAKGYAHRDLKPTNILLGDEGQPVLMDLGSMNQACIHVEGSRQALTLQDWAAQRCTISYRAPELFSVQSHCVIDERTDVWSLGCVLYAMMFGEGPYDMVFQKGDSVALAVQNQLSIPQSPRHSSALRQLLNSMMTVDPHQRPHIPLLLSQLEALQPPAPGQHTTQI

`COCCNCCCn1c(C(=O)CF)c(-c2ccc(C)cc2)c2c(N)ncnc21` was tested, and the kinase still bound, per cent of control (NEK1 (human)) was 100%, the kinase still bound, per cent of control (RPS6KA2 KD2 (human)) was 95% and the kinase still bound, per cent of control (CDK4 CCND3 (human)) was 100%. For the same molecule, the kinase still bound, per cent of control (TNK1 (human)) was 100%, the kinase still bound, per cent of control (KDR (human)) was 85% and the kinase still bound, per cent of control (CAMK2A (human)) was 78%. It also gave a kinase still bound, per cent of control (CDK14 (human)) of 100%, a kinase still bound, per cent of control (MERTK (human)) of 99% and a kinase still bound, per cent of control [1] of 90%. For the same molecule, the kinase still bound, per cent of control [2] was 90%, the kinase still bound, per cent of control (CDK15 (human)) was 100% and the kinase still bound, per cent of control (MAPK1 (human)) was 100%. The kinase still bound, per cent of control (CDK9 (human)) was 100%, the kinase still bound, per cent of control (CHUK (human)) was 72% and the kinase still bound, per cent of control (NUAK2 (human)) was 96%. The kinase still bound, per cent of control [3] was 100%, the kinase still bound, per cent of control (ULK1 (human)) was 100% and the kinase still bound, per cent of control (KIT (human)) was 77%. It also gave a kinase still bound, per cent of control (MAP4K1 (human)) of 86%, a kinase still bound, per cent of control (DAPK3 (human)) of 97% and a kinase still bound, per cent of control (ERN1 (human)) of 99%. The kinase still bound, per cent of control (CAMKK2 (human)) was 100%, the kinase still bound, per cent of control (MAP3K1 (human)) was 100% and the kinase still bound, per cent of control (PRKG2 (human)) was 98%. For the same molecule, the kinase still bound, per cent of control (RIPK4 (human)) was 100%, the kinase still bound, per cent of control (STK16 (human)) was 100% and the kinase still bound, per cent of control (SRPK1 (human)) was 100%. The kinase still bound, per cent of control (SRC (human)) was 98%, the kinase still bound, per cent of control (PRKD1 (human)) was 100% and the kinase still bound, per cent of control [4] was 84%. For the same molecule, the kinase still bound, per cent of control (MTOR (human)) was 90%, the kinase still bound, per cent of control (MARK2 (human)) was 81% and the kinase still bound, per cent of control (NEK11 (human)) was 63%. The kinase still bound, per cent of control (NEK9 (human)) was 99%, the kinase still bound, per cent of control [5] was 85% and the kinase still bound, per cent of control [6] was 96%. For the same molecule, the kinase still bound, per cent of control (MAP3K2 (human)) was 90%, the kinase still bound, per cent of control (PHKG2 (human)) was 100% and the kinase still bound, per cent of control [7] was 100%. It also gave a kinase still bound, per cent of control (CDK4 CCND1 (human)) of 98%, a kinase still bound, per cent of control [8] of 100% and a kinase still bound, per cent of control (ACVR1B (human)) of 91%. The kinase still bound, per cent of control (DYRK1B (human)) was 96%.
